# Measurements: US8222293B2, “Treating learning deficits with inhibitors of Hmg CoA reductase” (Regents of the University of Carolina, priority 2004, dated 2012)
# How the values were obtained:
# [1] = tested on: hippocampal slices of nf1+/− mice; assay: Hippocampal LTP at the Schaffer collateral/CA1 synapse in slices from treated mice; assay type: in vivo, mouse; conditions: 10 mg/kg s.c. once per day for 4 days
# nf1+/− mice [2] = assay: Water maze test (spatial learning); assay type: in vivo, mouse
# Excerpt: The basic protocol for the water maze experiments has been previously described. Mice from the 129T2/SvEmsJ-C57B/6N F1 genetic background were given two trials per day (30-s inter-trial intervals) with a probe trial (60 s) at the end of training day 5 and 7.
# Spatial problems are among the most common cognitive deficits in individuals affected with NF1. […] Mice were trained with two trials per day.
# In the probe trials the platform was removed from the pool and the mice were allowed to search for it for 60 seconds.
# nf1+/− mice [3] = assay: Lateralized reaction time task (attention); assay type: in vivo, mouse; conditions: 10 mg/kg oral pellets daily, target stimulus duration 0.5 sec
# Excerpt: Mice were fed 1.5 gm of chow every day in their home cages (1 hr after experiment). […] Mice were trained in miniaturized versions of a “5-choice” box (Med Associates Inc., St Albans Vt.) that was equipped with a curved wall with horizontal array five apertures that could be internally illuminated. The opposite wall was fitted with a food receptacle where pellets were delivered as reinforcers. The animals were shaped to produce a “poke and hold” response in the central aperture. A correct response was scored when the animals correctly poked a side aperture that had been indicated during the poke and hold response. […] When animals performed at 75% accuracy at 1 second target stimulus duration they entered the test phase. Mice were tested on a variable duration condition in which the target aperture was illuminated for 0.5, 1.0 or 2.0 sec (varied from trial to trial within the session). Correct responses/total trials were measured, which vary as a function of the target stimulus duration and was therefore analyzed with repeated measures analysis of variance (the repeated measure being stimulus duration).
# Besides spatial impairments, NF-1 patients also show attention deficits. […] For this purpose, a lateralized reaction-time task, a test that measures divided visuo-spatial attention, was used. […]
# nf1+/− mice [4] = assay: Prepulse inhibition; assay type: in vivo, mouse
# Protocol: Following an acclimation period of 5 min, mice were presented with a total of 20 noise bursts (40 ms duration, 120 dB, <1 ms rise/fall time). In the prepulse inhibition phase, mice were presented with a total of 90 trials. Three prepulse intensities were tested: 70, 75 and 80 dB. Prepulses were 20 ms in duration with a rise/fall time of less than 1 ms. For each prepulse intensity, there were three types of trial: prepulse alone, prepulse/startle stimulus and startle stimulus alone. In the prepulse/startle stimulus trial, the onset of the prepulse preceded the onset of the startle stimulus by 100 ms. Background noise levels were maintained at 68 dB throughout testing, and the trials were spaced […].
# This task assays sensory “gating” of environmental stimuli. A powerful and sudden acoustic stimulus will elicit a whole body startle response. When the startle producing stimulus is preceded by a weak pre-stimulus (by approximately 100 milliseconds) the startle response is inhibited in normal persons and animals. Previous studies show a high incidence of ADHD in NF1 and support an association between ADHD and learning problems in these children.
# p21Ras-GTP = assay: p21Ras activity assay (GST-Raf1-RBD pull-down) in hippocampal extracts of treated mice
# [5] = tested on: phosphorylated p44/42 MAPK; assay: Western blot for p44/42 MAP kinase phosphorylation in hippocampal extracts of treated mice
structure (smiles),measurement,setting,value
CC[C@H](C)C(=O)O[C@H]1C[C@@H](C)C=C2C=C[C@H](C)[C@H](CC[C@@H]3C[C@@H](O)CC(=O)O3)[C@H]21 [lovastatin],LTP deficits of nf1+/− mice,[1],completely reversed the LTP deficits
same,"amount of LTP induced, versus WT","[1]; nf1+/− mice, PLSD P=0.602",equivalent to that of WTs
same,"amount of LTP induced, versus untreated nf1+/− mutants","[1]; nf1+/− mice, five theta-burst stimulation, PLSD P<0.05",significantly higher than that induced in mutants
same,"proximity to exact platform position versus opposite position, probe trial","nf1+/− mice [2]; WT mice on lovastatin, t19=2.159, P<0.05",searched closer to the exact platform position than to the opposite position in the pool
same,cognitive function in control mice,nf1+/− mice [2]; dose effective in nf1+/− mice (10 mg/kg),did not affect cognitive function in control mice
same,"proximity to exact platform position versus opposite position, probe trial","nf1+/− mice [2]; nf1+/− mice on lovastatin, t20=2.170, P<0.05",searched closer to the exact platform position than to the opposite position in the pool
same,"time spent in training quadrant, day 7 probe trial, versus WT","nf1+/− mice [2]; nf1+/− mice, 10 mg/kg s.c. 3 days before training then 6 hours before training daily, P=0.862",spent as much time as WTs in the training quadrant
same,"time spent in training quadrant, day 7 probe trial, versus mutants given placebo","nf1+/− mice [2]; nf1+/− mice, 10 mg/kg s.c., P<0.05",significantly more time than mutants given placebo
same,"correct response rate, versus nf1+/− given placebo",nf1+/− mice [3]; PLSD P<0.05,significantly higher
same,"correct response rate, versus WT mice",nf1+/− mice [3]; PLSD P=0.148,indistinguishable from that of WT mice
same,"PPI performance, main effect of treatment","nf1+/− mice [4]; 10 mg/kg oral pellets daily, F1,30=6.61, P<0.05",resulted in an increase in performance
same,"PPI performance, versus WT animals on placebo","nf1+/− mice [4]; nf1+/− animals on lovastatin, PLSD P=0.877",indistinguishable from that of WT animals on placebo
same,hippocampal levels of p21Ras-GTP,p21Ras-GTP; WT as printed in b156 (FIG. 1c),decreased the hippocampal levels of p21Ras-GTP in WT
same,active p21Ras (p21Ras-GTP),"p21Ras-GTP; nf1+/− mice, FIG. 1c legend",decreased active p21Ras (p21Ras-GTP)
same,amount of phosphorylated p44/42 MAPK (the active form) in hippocampus,"[5]; WT mice, 0-50 mg/kg s.c. once per day for 4 days, 6 hours after final injection",decreased the amount of phosphorylated p44/42 MAPK (the active form) in a dose-dependent fashion
same,levels of phosphorylated p44/42 MAPK in hippocampus,"[5]; nf1+/− mice, 10 mg/kg s.c. once per day for 4 days",decreased the levels of phosphorylated p44/42 MAPK
